Data as given in PMC6827283, “A Na^+ leak channel cloned from Trichoplax adhaerens extends extracellular pH and Ca^2+ sensing for the DEG/ENaC family close to the base of Metazoa” (The Journal of Biological Chemistry, 2019).

What was measured:
TadNaC6 [1] = target: T1, TadNaC6 (Trichoplax adhaerens, UniProt A0A5J6BVG3); test: whole-cell patch clamp, CHO-K1 cells; type: cell-based; settings: agonist (activation); perfusion from pH 5 to pH 7.5 (figure legend pH 7.4); 10 μM to 3 mM tested; no EC50
T1 construct: gene ASIC6; full-length untagged channel from pTadNaC6-IR-EGFP (pIRES2-EGFP, EGFP expressed separately) in CHO-K1 cells; functional homomer, trimer by homology; cloning primers encode N-terminus MMAKGKIDH and C-terminus ADATNPDM-stop
T1 sequence (A0A5J6BVG3 1-492): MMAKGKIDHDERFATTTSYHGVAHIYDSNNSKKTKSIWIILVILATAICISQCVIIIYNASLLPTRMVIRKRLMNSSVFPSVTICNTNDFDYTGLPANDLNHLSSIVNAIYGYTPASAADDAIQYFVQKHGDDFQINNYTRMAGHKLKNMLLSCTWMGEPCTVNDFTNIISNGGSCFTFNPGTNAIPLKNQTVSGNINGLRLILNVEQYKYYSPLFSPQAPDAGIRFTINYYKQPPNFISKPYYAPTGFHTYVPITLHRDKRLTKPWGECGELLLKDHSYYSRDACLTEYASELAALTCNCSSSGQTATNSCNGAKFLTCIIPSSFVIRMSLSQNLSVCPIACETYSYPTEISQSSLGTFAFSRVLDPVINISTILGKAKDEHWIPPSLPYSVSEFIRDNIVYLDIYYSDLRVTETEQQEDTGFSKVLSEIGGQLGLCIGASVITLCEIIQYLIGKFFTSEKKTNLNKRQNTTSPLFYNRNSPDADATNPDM

TadNaC6 [2] = target: T1, TadNaC6; test: whole-cell patch clamp, CHO-K1 cells; type: cell-based

Structure (SMILES)	fold current at 3 mM relative to pH 9 without amiloride (TadNaC6 [1])	IC50 (TadNaC6 [2]) [µM]
N=C(N)NC(=O)c1nc(Cl)c(N)nc1N [amiloride]	~ 12 fold	–
N=C(N)c1ccc(/N=N/Nc2ccc(C(=N)N)cc2)cc1 [diminazene]	–	578 ± 69.4
